Consider two molecules from patent US8178579B2, “Dioxanes and uses thereof” (President and Fellows of Harvard College, priority 2001, dated 2012).

Common to all, as to format: cell-based, human
One assay has as its system histone deacetylation. In words: acetylated lysine / acetylated histone in cells (AcLysine cytoblot, immunofluorescence, Western blot). The following applies: A549 (also BS-C-1) cells, tubacin, niltubacin 2 μM, histacin 20 μM, library ~2-5 μM, 18 h. As for the experimental part: (§1) A549 cells were seeded at a density of 4,000 cells/50 μl in DMEM+ in white tissue culture-treated 384-well plates (Nalge Nunc) using a Multidrop 384 liquid dispenser (Labsystems). Library small molecules were pinned twice (100-150 nl/pin) from ˜1 mM stock solutions (DMSO) and incubated for 18 hours. For the ITSA1+AcTubulin assay, ITSA1 (50 μM) was added four hours after pin-transfer of library molecules. Media was aspirated with a 16-channel wand. For the acetylated α-tubulin cytoblot (AcTubulin), 40 μl/well of fixation solution (3.7% formaldehyde (1:10 from 37% stock) in Tris-buffered saline (TBS, 0.15 M NaCl, 0.02 M Tris-Cl, pH 7.4) was added and plates incubated for twenty minutes at room temperature. After aspiration, 30 μl 100% methanol (−20° C.) was added and incubated for five minutes at room temperature. After aspirating and washing three times with 90 μl of antibody dilution buffer (ADB, TBS/2% bovine serum albumin, 0.1% TritonX-100) the wells were blocked for twenty minutes in ADB. After aspirating, 20 μl/well of ADB containing anti-acetylated α-tubulin antibody (mouse; 1:1000) and anti-mouse IgG horseradish peroxidase (HRP)-conjugated antibody (1:750) was added and incubated overnight (4° C.). For the anti-acetyl lysine cytoblot (AcLysine), 40 μl/well of fixation solution (95% ethanol/5% acetic acid, −20° C.) was added and plates incubated for five minutes at room temperature. Wells were aspirated, washed, and blocked in ADB as for the AcTubulin protocol. After aspirating, 20 μl/well of ADB containing anti-acetylated lysine (rabbit; 1:375) and anti-rabbit IgG-HRP conjugated antibody (1:750) was added and incubated overnight (4° C.). For the anti-acetylated histone H3 (AcHistH3) and anti-acetylated histone H4 (AcHistH4) cytoblots, cells were fixed, washed, and blocked in ADB as for the AcLysine cytoblot. After aspirating, 20 μl/well of ADB containing anti-acetylated histone H3 antibody (rabbit, 1:500) or anti-acetylated histone H4 antibody (rabbit, 1:500) was added and incubated for two hours at room temperature. Wells were aspirated and washed twice with 80 μl of ADB. After aspirating, 20 μl/well of ADB containing anti-rabbit IgG-HRP conjugated antibody (1:1000) was added and incubated for two hours (room temperature). For the AcTubulin and AcLysine assays, plates were washed three times with TBS before adding 20 μl/well of enhanced chemiluminescent (ECL) mixture. For the AcHistH3 and AcHistH4 assays, plates were washed three times with 80 μl TBS with 1% Triton X-100 and once with 80 μl TBS before adding 20 μl/well of ECL mixture. Plates were read on an Analyst plate reader (LJL Biosystems) with an integration time of 0.1 seconds.
(§2) 1,3-dioxanes from single polystyrene macrobeads were prepared as 1-2 mM stock solutions in DMSO as described [Hubbert, C., Guardiola, A., Shao, R., Kawaguchi, Y., Ito, A., Nixon, A., Yoshida, M., Wang, X. F., and Yao, T. P. (2002). HDAC6 is a microtubule-associated deacetylase. Nature 417, 455-458]. Bead decoding and structure determination were as described [See for example, Hubbert, C., Guardiola, A., Shao, R., Kawaguchi, Y., Ito, A., Nixon, A., Yoshida, M., Wang, X. F., and Yao, T. P. (2002). HDAC6 is a microtubule-associated deacetylase. Nature 417, 455-458; and Piperno, G., LeDizet, M., and Chang, X. J. (1987). Microtubules containing acetylated alpha-tubulin in mammalian cells in culture. J. Cell Biol. 104, 289-302]. Small molecules (˜2-5 μM) of interest were retested using a sample from the plate of stock solutions by fluorescence microscopy and comparison to the effects of trichostatin (300 nM to 1 μM).
(§3) A549 cells were seeded at a density of 50,000/200 μl in DMEM+ on the surface of glass coverslips on top of Parafilm in a 10 cm dish and allowed to attach overnight. For detection of acetylated α-tubulin, cells were permeabilized and fixed with 100 mM K-PIPES, pH 6.8, 10 mM EGTA, 1 mM MgCl2, 0.2% triton X-100, 0.2% glutaraldehyde for fifteen minutes. […]
(A western blot detects proteins with antibodies after separation by electrophoresis.)

Another assay deals with α-tubulin deacetylation. In words: acetylated α-tubulin in cells (AcTubulin cytoblot, immunofluorescence, Western blot). The following applies: for effect on tubulin deacetylation / α-tubulin acetylation in cells: A549 (also BS-C-1) cells, tubacin/JCWII114, niltubacin/JCWII153 2 μM, TSA 100 nM-4 μM, library ~2-5 μM, 18 h. On the procedure: as §1, §2, §3
Another assay relates to A549 cells. In words: cell cycle (BrdU labeling, FACS) and cell morphology. Particulars: for effect on cell cycle / DNA synthesis: FACS: 4 h, TSA 300 nM, tubacin 2 μM. On the procedure: Bromodeoxyuridine labeling and fluorescence-activated cell sorting (FACS) were performed as described (K. M. Koeller et al., Chemistry & Biology, 10 (5) (2003) pp. 397-410). […] Samples were rinsed in PBS, trypsinized, and fixed for two hours in 70% ethanol/30% PBS (4° C.). Cells were then washed once in PBS and stored overnight in PBS (4° C.). To measure acetylated tubulin levels, samples were blocked for 45 minutes in ADB, aspirated, and incubated in ADB with anti-acetylated tubulin (1:500) overnight (4° C.). Samples were washed twice in ADB and incubated in ADB with FITC-conjugated anti-mouse IgG (goat; 1:200) for one hour (room temperature). After washing twice in TBS, cells were resuspended in 100 μL of ribonuclease A (100 μg/mL) and incubated for five minutes (37° C.). To measure the DNA content, 400 μL of propidium iodide (50 μg/mL) was added to the samples and incubated for one hour (room temperature). Samples were analyzed using a FACScanII flow cytometer (Becton-Dickinson), at the Dana Farber Cancer Institute, exciting at 488 nm and measuring the acetylated tubulin-linked FITC fluorescence through a 514 nm bandpass filter and the PI fluorescence through a 600 nm wave-length filter. Cell cycle distributions were calculated from 10,000 cells and modeled using ModFit LT (V2.0) software.

Each structure is given as a SMILES string. Entries after “also recorded” stand apart in the source; their conditions may differ. Where two headings read alike, the source gives them in different places. Where only a bound is given, the exact number is not on record here.

As for `CC(/C=C/C(=O)NO)=C\[C@@H](C)C(=O)c1ccc(N(C)C)cc1` [TSA, trichostatin A, reference compound], in the assay with histone deacetylation, the “effect on histone deacetylation / lysine or histone acetylation in cells” value is “an inhibitor of both α-tubulin and histone deacetylation”. The “effect on tubulin deacetylation / α-tubulin acetylation in cells” value in the assay on α-tubulin deacetylation is “an inhibitor of both α-tubulin and histone deacetylation; also recorded: Increased α-tubulin acetylation upon TSA (4 μM) treatment (24 h)”. For the same molecule, the “effect on cell cycle / DNA synthesis” value with A549 cells is given as “marked loss of a BrdU-positive S-phase population”.

As for `O=C(CCCCCCC(=O)Nc1ccc([C@@H]2OC(c3ccc(CO)cc3)C[C@H](CSc3nc(-c4ccccc4)c(-c4ccccc4)o3)O2)cc1)NO` (some centres unmarked) [tubacin], the “effect on histone deacetylation / lysine or histone acetylation in cells” value in the assay on histone deacetylation was “did not affect histone acetylation”; in the assay on histone deacetylation (listed as 415 N3), “no effect on lysine acetylation”; in the assay with histone deacetylation (listed as JCWII114), “no visible effect on histone deacetylation”. The “effect on tubulin deacetylation / α-tubulin acetylation in cells” value in the assay on α-tubulin deacetylation is “Increased acetylated α-tubulin induced by tubacin; also recorded: Reversibility of tubacin-induced (2 μM; 5 h) α-tubulin acetylation; also recorded: strongly increased α-tubulin acetylation levels; also recorded: potent (FIG. 41E), selective (FIG. 41F; FIG. 46A), and reversible (FIG. 46B) inhibitor of α-tubulin deacetylation; also recorded: always increased α-tubulin acetylation levels”; in the assay on α-tubulin deacetylation (listed as 415 N3), “strongly increased α-tubulin acetylation”; with α-tubulin deacetylation (listed as JCWII114), “potently and selectively inhibited tubulin deacetylation”. The “concentration at which α-tubulin acetylation is increased” value in the assay with α-tubulin deacetylation (A549 cells, 4 h, data not shown) is at least 125 nM. Further, the figures for the “effect on cell morphology” value in the assay on A549 cells and with A549 cells (listed as JCWII114) were “had no overall effect on the morphology of A549 cells” and “no apparent affect on the cell cycle or on cell morphology”, respectively. Further, the “effect on cell cycle / DNA synthesis” value in the assay on A549 cells is “No effect of tubacin on DNA synthesis or cell cycle distribution; also recorded: had no such effects”; in the assay with A549 cells (listed as JCWII114), “no apparent affect on the cell cycle or on cell morphology”.
